# Experimental data published in patent US7763728B2, “Tetrahydropyridothiophenes” (4SC AG, priority 2005, dated 2010).
# Experiments:
# [1] = system: RKO (RKOp27) human colon adenocarcinoma cells; assay: Alamar Blue cell viability assay, anti-proliferative/cytotoxic activity on proliferating (uninduced) RKOp27 cells; format: cell-based; conditions: 72 hours incubation, absence of the inducer Ponasterone A, read-out: IC50 RKO p27 uninduced (proliferating)
# Method: The anti-proliferative/cytotoxic activity of the compounds described herein, can be tested on subclones of RKO (RKOp27) human colon adenocarcinoma cells (Schmidt et al., Oncogene 19, 2423-2429; 2000) using the Alamar Blue cell viability assay (described in O'Brien et al. Eur J Biochem 267, 5421-5426, 2000). The compounds are dissolved as 20 mM solutions in dimethylsulfoxide (DMSO) and subsequently diluted in semi-logarithmic steps. DMSO dilutions are further diluted 1:100 into Dulbecco's modified Eagle's medium (DMEM) containing 10% fetal calf serum to a final concentration twice as much as the final concentration in the test. RKO subclones are seeded into 96 well flat bottom plates at a density of 5000 cells per well in a volume of 50 μl per well. 24 hours after seeding the 50 μl each of the compound dilutions in DMEM medium are added into each well of the 96 Well plate. Each compound dilution is tested as quadruplicates. Wells containing untreated control cells are filled with 50 μl DMEM medium containing 1% DMSO. The cells are then incubated with the substances for 72 hours at 37° C. in a humified atmosphere containing 5% carbon dioxide. To determine the viability of the cells, 10 μl of an Alamar Blue solution (Biosource) are added and the fluorescence is measured at an extinction of 544 nm and an emission of 590 nm. For the calculation of the cell viability the emission value from untreated cells is set as 100% viability and the emission rates of treated cells are set in relation to the values of untreated cells. Viabilities are expressed as % values.
# The corresponding IC50 values of the compounds for anti-proliferative/cytotoxic activity are determined from the concentration-effect curves.
# Representative IC50 values for anti-proliferation/cytotoxicity determined in the mentioned assay follow from the following table A, in which the numbers of the compounds correspond to the numbers of the examples.
# [2] = system: RKO colon adenocarcinoma cells (RKOp27) arrested by the expression of ectopic p27Kip1; assay: Alamar Blue cell viability assay on RKOp27 cells arrested by p27Kip1 expression induced by Ponasterone A; format: cell-based; conditions: Homo sapiens, 72 hours incubation, 10 μM Ponasterone A, read-out: IC50 RKO p27 induced (arrested)
# Method: To determine the cell cycle specific mode of action, subclones of RKO colon adenocarcinoma cells (RKOp27 or RKOp21 as described by Schmidt et al. in Oncogene 19, 2423-2429; 2000) are seeded into 96 well flat bottom plates at a density of 15000 cells per well in a volume of 50 μl per well in DMEM growth medium with 10% FCS containing 10 μM Ponasterone A. 24 hours after seeding the 50 μl each of the compound dilutions in DMEM medium are added into each well of the 96 Well plate. Each compound dilution is tested as quadruplicates. Wells containing untreated control cells are filled with 50 μl DMEM medium containing 1% DMSO. The cells are then incubated with the substances for 72 hours at 37° C. in a humidified atmosphere containing 5% carbon dioxide. To determine the viability of the cells, 10 μl of an Alamar Blue solution (Biosource) are added and the fluorescence was measured at an extinction of 544 nm and an emission of 590 nm. For the calculation of the cell viability the emission value from untreated cells is set as 100% viability and the emission rates of treated cells are set in relation to the values of untreated cells. Viabilities are expressed as % values. Viability is compared of proliferating cells grown in the absence of the inducer Ponasterone A, versus viability of cells arrested by the expression of ectopic p27Kip1 induced by Ponasterone A.
SMILES,IC50 [2],IC50 [1]
"COCCOCC(=O)N1CCc2c(sc(NC(=O)CCc3ccccc3OC)c2C#N)C1 [Example 6, N-{3-Cyano-6-[2-(2-methoxy-ethoxy)-ethanoyl]-4,5,6,7-tetrahydro-thieno[2,3-c]pyridin-2-yl}-3-(2-methoxy-phenyl)-propionamide]",≥ 40000 nM,300 to 2000 nM
"COc1ccccc1CCC(=O)Nc1sc2c(c1C#N)CCN(C(=O)COC(C)=O)C2 [Example 7, Acetic acid 2-{3-cyano-2-[3-(2-methoxy-phenyl)-propanoylamino]-4,7-dihydro-5H-thieno[2,3-c]pyridin-6-yl}-2-oxo-ethyl ester]",> 100000 nM,≤ 300 nM
"CCOc1ccccc1CCC(=O)Nc1sc2c(c1C#N)CCN(C(=O)COC(C)=O)C2 [Example 10, Acetic acid 2-{3-cyano-2-[3-(2-ethoxy-phenyl)-propanoylamino]-4,7-dihydro-5H-thieno[2,3-c]pyridin-6-yl}-2-oxo-ethyl ester]",> 100000 nM,≤ 300 nM
"COCCC(=O)N1CCc2c(sc(NC(=O)CCc3cccc(OC)c3)c2C#N)C1 [Example 12, N-[3-Cyano-6-(3-methoxy-propanoyl)-4,5,6,7-tetrahydro-thieno[2,3-]pyridin-2-yl]-3-(3-methoxy-phenyl)-propionamide]",> 100000 nM,300 to 2000 nM
"CCOc1ccccc1CCC(=O)Nc1sc2c(c1C#N)CCN(C(=O)CCOC)C2 [Example 13, N-[3-Cyano-6-(3-methoxy-propanoyl)-4,5,6,7-tetrahydro-thieno[2,3-c]pyridin-2-yl]-3-(2-ethoxy-phenyl)-propionamide]",> 100000 nM,≤ 300 nM
"COc1cccc(CCC(=O)Nc2sc3c(c2C#N)CCN(C(=O)CCc2cccnc2)C3)c1 [Example 14, N-[3-Cyano-6-(3-pyridin-3-yl-propanoyl)-4,5,6,7-tetrahydro-thieno[2,3-c]pyridin-2-yl]-3-(3-methoxy-phenyl)-propionamide]",> 100000 nM,300 to 2000 nM
"COc1cccc(CCC(=O)Nc2sc3c(c2C#N)CCN(C(=O)CCc2ccncc2)C3)c1 [Example 15, N-[3-Cyano-6-(3-pyridin-4-yl-propanoyl)-4,5,6,7-tetrahydro-thieno[2,3-c]pyridin-2-yl]-3-(3-methoxy-phenyl)-propionamide]",> 100000 nM,300 to 2000 nM
"COc1cccc(CCC(=O)Nc2sc3c(c2C#N)CCN(C(=O)CCc2ccccn2)C3)c1 [Example 16, N-[3-Cyano-6-(3-pyridin-2-yl-propanoyl)-4,5,6,7-tetrahydro-thieno[2,3-c]pyridin-2-yl]-3-(3-methoxy-phenyl)-propionamide]",> 100000 nM,300 to 2000 nM
"CCOc1ccccc1CCC(=O)Nc1sc2c(c1C#N)CCN(C(=O)CCc1ccccn1)C2 [Example 17, N-[3-Cyano-6-(3-pyridin-2-yl-propanoyl)-4,5,6,7-tetrahydro-thieno[2,3-c]pyridin-2-yl]-3-(2-ethoxy-phenyl)-propionamide]",≥ 40000 nM,≤ 300 nM
"COCC(=O)N1CCc2c(sc(NC(=O)CCc3cccc(OC)c3)c2C#N)C1 [Example 18, N-[3-Cyano-6-(2-methoxy-ethanoyl)-4,5,6,7-tetrahydro-thieno[2,3-c]pyridin-2-yl]-3-(3-methoxy-phenyl)-propionamide]",> 100000 nM,300 to 2000 nM
"CCOc1ccccc1CCC(=O)Nc1sc2c(c1C#N)CCN(C(=O)COC)C2 [Example 19, N-[3-Cyano-6-(2-methoxy-ethanoyl)-4,5,6,7-tetrahydro-thieno[2,3-c]pyridin-2-yl]-3-(2-ethoxy-phenyl)-propionamide]",> 100000 nM,≤ 300 nM

# Continued, in another order:
IC50 [2],SMILES,IC50 [1]
≥ 40000 nM,"COc1cccc(CCC(=O)Nc2sc3c(c2C#N)CCN(C(=O)CCn2ccnc2)C3)c1 [Example 20, N-[3-Cyano-6-(3-imidazol-1-yl-propanoyl)-4,5,6,7-tetrahydro-thieno[2,3-c]pyridin-2-yl]-3-(3-methoxy-phenyl)-propionamide]",300 to 2000 nM
> 100000 nM,"COc1cccc(CCC(=O)Nc2sc3c(c2C#N)CCN(C(=O)CCCO)C3)c1 [Example 21, N-[3-Cyano-6-(4-hydroxy-butanoyl)-4,5,6,7-tetrahydro-thieno[2,3-c]pyridin-2-yl]-3-(3-methoxy-phenyl)-propionamide]",300 to 2000 nM
> 100000 nM,"CCOc1ccccc1CCC(=O)Nc1sc2c(c1C#N)CCN(C(=O)CCc1cccnc1)C2 [Example 22, N-[3-Cyano-6-(3-pyridin-3-yl-propanoyl)-4,5,6,7-tetrahydro-thieno[2,3-c]pyridin-2-yl]-3-(2-ethoxy-phenyl)-propionamide]",≤ 300 nM
> 100000 nM,"CCCC(=O)N1CCc2c(sc(NC(=O)CCc3cccc(OC)c3)c2C#N)C1 [Example 23, N-(6-Butyryl-3-cyano-4,5,6,7-tetrahydro-thieno[2,3-c]pyridin-2-yl)-3-(3-methoxy-phenyl)-propionamide]",≤ 300 nM
> 100000 nM,"CCCC(=O)N1CCc2c(sc(NC(=O)CCc3ccccc3OCC)c2C#N)C1 [Example 24, N-(6-Butyryl-3-cyano-4,5,6,7-tetrahydro-thieno[2,3-c]pyridin-2-yl)-3-(2-ethoxy-phenyl)-propionamide]",≤ 300 nM
> 100000 nM,"CCOc1ccccc1CCC(=O)Nc1sc2c(c1C#N)CCN(C(=O)COCCOC)C2 [Example 25, N-{3-Cyano-6-[2-(2-methoxy-ethoxy)-ethanoyl]-4,5,6,7-tetrahydro-thieno[2,3-c]pyridin-2-yl}-3-(2-ethoxy-phenyl)-propionamide]",≤ 300 nM
≥ 10000 nM,"CCOc1ccccc1CCC(=O)Nc1sc2c(c1C#N)CCN(C(=O)Cc1ccccn1)C2 [Example 26, N-[3-Cyano-6-(2-pyridin-2-yl-ethanoyl)-4,5,6,7-tetrahydro-thieno[2,3-c]pyridin-2-yl]-3-(2-ethoxy-phenyl)-propionamide]",≤ 300 nM
≥ 40000 nM,"CCOc1ccccc1CCC(=O)Nc1sc2c(c1C#N)CCN(C(=O)Cc1cccnc1)C2 [Example 27, N-[3-Cyano-6-(2-pyridin-3-yl-ethanoyl)-4,5,6,7-tetrahydro-thieno[2,3-c]pyridin-2-yl]-3-(2-ethoxy-phenyl)-propionamide]",≤ 300 nM
> 100000 nM,"COc1cccc(CCC(=O)Nc2sc3c(c2C#N)CCN(C(=O)CO)C3)c1 [Example 28, N-[3-Cyano-6-(2-hydroxy-ethanoyl)-4,5,6,7-tetrahydro-thieno[2,3-c]pyridin-2-yl]-3-(3-methoxy-phenyl)-propionamide]",300 to 2000 nM
> 100000 nM,"COc1ccc(C)cc1CCC(=O)Nc1sc2c(c1C#N)CCN(C(=O)CCc1cccnc1)C2 [Example 29, N-[3-Cyano-6-(3-pyridin-3-yl-propanoyl)-4,5,6,7-tetrahydro-thieno[2,3-c]pyridin-2-yl]-3-(2-methoxy-5-methyl-phenyl)-propionamide]",300 to 2000 nM
> 100000 nM,"COCCOCC(=O)N1CCc2c(sc(NC(=O)CCc3cccc(OC)c3)c2C#N)C1 [Example 30, N-{3-Cyano-6-[2-(2-methoxy-ethoxy)-ethanoyl]-4,5,6,7-tetrahydro-thieno[2,3-c]pyridin-2-yl}-3-(3-methoxy-phenyl)-propionamide]",300 to 2000 nM
> 100000 nM,"COc1cccc(CCC(=O)Nc2sc3c(c2C#N)CCN(C(=O)Cc2ccccn2)C3)c1 [Example 31, N-[3-Cyano-6-(2-pyridin-2-yl-ethanoyl)-4,5,6,7-tetrahydro-thieno[2,3-c]pyridin-2-yl]-3-(3-methoxy-phenyl)-propionamide]",≤ 300 nM
> 100000 nM,"COCCC(=O)N1CCc2c(sc(NC(=O)CCc3cc(C)ccc3OC)c2C#N)C1 [Example 32, N-[3-Cyano-6-(3-methoxy-propanoyl)-4,5,6,7-tetrahydro-thieno[2,3-c]pyridin-2-yl]-3-(2-methoxy-5-methyl-phenyl)-propionamide]",300 to 2000 nM
